In patent US11827628B2, “Compositions and methods for inhibition of the JAK pathway” (Rigel Pharmaceuticals, Inc., priority 2005, dated 2023):
Structures can show the parent of a compound that is named as a salt. Where two headings read alike, the source gives them in different places.

What was measured:
[1] = tested on: up-regulation of ICAM-1 (CD54) by IFNγ in U937 human monocytic cells; test: U937 IFNγ ICAM1 FACS Assay; type: cell-based; conditions: U937 cells stimulated with IFNγ, ICAM-1 expression by FACS, read-out: IC50, Example 44
Procedure, shortened: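 U937 cells in 10% FCS RPMI were preincubated 30 min at 37 °C with an 8-point, 3-fold compound dilution series in duplicate, then stimulated with IFNγ for 18–24 h. Surface ICAM-1 was stained with APC anti-ICAM-1 and read by flow cytometry as geometric mean on live-gated cells. EC50 was derived.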

[2] = tested on: IL-4 stimulated expression of CD23 in human Ramos B cells (JAK-1 and JAK-3); test: Assay for Ramos B-Cell Line Stimulated with IL-4 (CD23 upregulation, FACS); type: cell-based; conditions: read-out: IC50, Example 41
Procedure, shortened: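 Compound effect on IL-4-driven JAK1/JAK3 signalling is gauged as CD23 surface expression, measured by FACS after 20-24 h of stimulation with IL-4 at 50 units/mL final. A 1 h compound pre-treatment at 37 °C precedes stimulation, and IC50 is derived from the results.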

[3] = Ramos B-cell line stimulated with IL-4, CD23 expression by FACS
[4] = Ramos B cells stimulated with IL-4, CD23 expression by FACS

IC50 [1]	IC50 [2, 3]	IC50 [2, 4]	IC50 ([1]; dihydrochloride)	IC50 ([2]; Ramos B-cell line stimulated with IL-4, CD23 expression by FACS, dihydrochloride)	Compound
1640 nM	245 nM	–	–	–	CCN(CC)CCNS(=O)(=O)c1ccc(Nc2ncc(F)c(Nc3ccc(OCc4ccccn4)cc3)n2)cc1 [Compound I-165, N2-[4-(2-N,N-Diethylaminoethyl)aminosulfonylphenyl)-5-fluoro-N4-[4-(2-pyridinyl)methyleneoxyphenyl]-2,4-pyrimidinediamine]
477 nM	–	43.9 nM	–	–	Cc1ccc(Nc2ncc(F)c(Nc3ccc4c(c3)NC(=O)CS4)n2)cc1S(N)(=O)=O [VII-45, N2-(3-Aminosulphonyl-4-methyl-phenyl)-5-fluoro-N4-(3-oxo-4H-benzo[1,4]thiazin-6-yl)-2,4-pyrimidinediamine]
41.8 nM	13 nM	–	–	–	Cc1ccc(Nc2ncc(Br)c(Nc3ccc(OCC#N)cc3)n2)cc1S(N)(=O)=O [Compound I-14, N2-(3-Aminosulfonyl-4-methylphenyl)-5-bromo-N4-(4-cyanomethyleneoxyphenyl)-2,4-pyrimidinediamine]
–	–	–	6450 nM	97.6 nM	CNS(=O)(=O)c1cc(Nc2ncc(F)c(Nc3ccc(Cn4ccnc4)cc3)n2)ccc1C [III-86, 5-Fluoro-N2-[3-(N-methylaminosulfony)-4-methylphenyl]-N4-[4-(1-imidazolylmethyl)phenyl]-2,4-pyrimidinediamine dihydrochloride]
500 nM	42.7 nM	–	–	–	NS(=O)(=O)c1cccc(Nc2ncc(F)c(Nc3ccc(OCc4cccnc4)cc3)n2)c1 [Compound I-188, N2-(3-Aminosulfonylphenyl)-5-fluoro-N4-[4-(3-pyridinyl)methyleneoxyphenyl]-2,4-pyrimidinediamine]
2430 nM	292 nM	–	–	–	Cc1ccc(Nc2ncc(F)c(Nc3ccc(OC(C)C(N)=O)cc3)n2)cc1S(N)(=O)=O (stereo not shown) [Compound I-118, N4-[4-(1-Aminocarbonyl)ethoxy]phenyl-N2-(3-aminosulfonyl-4-methyl)phenyl-5-fluoro-2,4-pyrimidinediamine]
796 nM	135 nM	–	–	–	CCN(CC)CCNS(=O)(=O)c1ccc(Nc2ncc(F)c(Nc3ccc(OCc4cccnc4)cc3)n2)cc1 [Compound I-191, N2-[4-(2-N,N-Diethylaminoethyl)aminosulfonylphenyl)-5-fluoro-N4-[4-(3-pyridinyl)methyleneoxyphenyl]-2,4-pyrimidinediamine]
4730 nM	–	109 nM	–	–	N#CCn1ccc2cc(Nc3nc(Nc4ccc(Cl)c(S(N)(=O)=O)c4)ncc3F)ccc21 [IX-7, N2-(3-Aminosulfonyl-4-chlorophenyl)-N4-(1-cyanomethyleneindol-5-yl)-5-fluoro-2,4-pyrimidinediamine]
596 nM	–	82.8 nM	–	–	NS(=O)(=O)c1cccc(Nc2ncc(F)c(Nc3ccc(OCC(F)(F)F)cc3)n2)c1 [VI-47, N2-(3-Aminosulfonylphenyl)-5-fluoro-N4-(4-trifluoromethylmethyleneoxyphenyl)-2,4-pyrimidinediamine]
15700 nM	292 nM	–	–	–	Cc1cc(Nc2nc(Nc3ccc(S(N)(=O)=O)cc3)ncc2F)cc(C)c1OC(C)C(N)=O (racemic) [Compound I-122, Racemic N4-[4-(1-Aminocarbonyl)ethoxy-3,5-dimethyl]phenyl-N2-(4-aminosulfonyl)phenyl-5-fluoro-2,4-pyrimidinediamine]
978 nM	137 nM	–	–	–	NS(=O)(=O)c1cccc(Nc2ncc(F)c(Nc3ccc(SCc4cccnc4)cc3)n2)c1 [Compound I-192, N2-(3-Aminosulfonylphenyl)-5-fluoro-N4-[4-(3-pyridinyl)-methylenethiophenyl]-2,4-pyrimidinediamine]
45500 nM	–	669 nM	–	–	CN1C(=O)C(C)(C)Oc2cc(Nc3nc(Nc4cccc(S(N)(=O)=O)c4)ncc3F)cnc21 [VII-42, N2-(3-Aminosulfonylphenyl)-N4-[2,2,4-trimethyl-3-oxo-5-pyrid[1,4]oxazin-7-yl]-5-fluoro-2,4-pyrimidinediamine]
849 nM	–	111 nM	–	–	COCCCn1ncc2cc(Nc3nc(Nc4cccc(S(N)(=O)=O)c4)ncc3F)ccc21 [VII-22, N2-(3-Aminosulfonylphenyl)-5-fluoro-N4-[1-(3-methoxypropyl)indazolin-5-yl]-2,4-pyrimidinediamine]
10100 nM	–	153 nM	–	–	COc1ccc(Nc2nc(Nc3cc(C)c4c(c3)S(=O)(=O)NC=N4)ncc2F)cc1Cl [VIII-3, N4-(3-Chloro-4-methoxyphenyl)-5-fluoro-N2-(5-methyl-2H-1,1-dioxo-1,2,4-benzothiadiazin-7-yl)-2,4-pyrimidinediamine]
456 nM	62.4 nM	–	–	–	CNS(=O)(=O)c1cc(Nc2ncc(C)c(Nc3ccc(OCc4ccccn4)cc3)n2)ccc1C [Compound I-180, 5-Methyl-N2-[3-(N-methylaminosulfony)-4-methylphenyl]-N4-[4-(2-pyridinyl)methyleneoxyphenyl]-2,4-pyrimidinediamine]
923 nM	130 nM	–	–	–	Cc1ccc(Nc2ncc(F)c(Nc3ccc(OCc4ccccn4)cc3)n2)cc1S(N)(=O)=O [Compound I-160, N2-(3-Aminosulfonyl-4-methylphenyl)-5-fluoro-N4-[4-(2-pyridinyl)methyleneoxyphenyl]-2,4-pyrimidinediamine]
7200 nM	355 nM	–	–	–	CC(C)(Oc1ccc(Nc2nc(Nc3cccc(S(N)(=O)=O)c3)ncc2F)cc1)C(N)=O [Compound I-126, N4-[4-(1-Aminocarbonyl-1-methyl)ethoxy]phenyl-N2-(3-aminosulfonyl)phenyl-5-fluoro-2,4-pyrimidinediamine]
15500 nM	115 nM	–	–	–	CNS(=O)(=O)c1cc(Nc2ncc(F)c(Nc3ccc(-c4ccccn4)c(OCF)c3)n2)ccc1C [Compound I-173, 5-Fluoro-N2-[3-N-(methyl)aminosulfonyl-4-methylphenyl]-N4-[4-(2-pyridinyl)-3-fluoromethyleneoxyphenyl]-2,4-pyrimidinediamine]
496 nM	–	104 nM	–	–	CNS(=O)(=O)c1cc(Nc2ncc(F)c(Nc3ccc4c(c3)CCN4S(C)(=O)=O)n2)ccc1C [VII-62, 5-Fluoro-N2-[3-(N-methylaminosulfony)-4-methylphenyl]-N4-[4-(1-methylsulfonyl)indolin-5-yl]-2,4-pyrimidinediamine]
329 nM	23.3 nM	–	–	–	Cc1ccc(Nc2ncc(F)c(Nc3ccc(OCC#N)c(F)c3)n2)cc1S(N)(=O)=O [Compound I-11, N2-(3-Aminosulfonyl-4-methylphenyl)-5-fluoro-N4-(4-cyanomethyleneoxy-3-fluorophenyl)-2,4-pyrimidinediamine]
